Source: patent publication US11066414B2, “Cot modulators and methods of use thereof” (Gilead Sciences, Inc., priority 2015, dated 2021)
Where two headings read alike, the source gives them in different places.

What was measured:
TNFα = assay: Cot Monocyte TNFα Cell Based Assay
Human Cot = Human Cot (Homo sapiens (Human), UniProt P41279); assay: High Throughput Cot Biochemical Assay; settings: Cot HTRF (TR-FRET KinEASE) biochemical assay, 400 μM ATP
[1] = Homo sapiens, Monocyte, read-out: EC50 TNF, LPS-stimulated human monocytes, TNFα TR-FRET
[2] = read-out: EC50 TNF, LPS-stimulated human monocytes, TNFα TR-FRET

Chain of Human Cot (P41279 30-397): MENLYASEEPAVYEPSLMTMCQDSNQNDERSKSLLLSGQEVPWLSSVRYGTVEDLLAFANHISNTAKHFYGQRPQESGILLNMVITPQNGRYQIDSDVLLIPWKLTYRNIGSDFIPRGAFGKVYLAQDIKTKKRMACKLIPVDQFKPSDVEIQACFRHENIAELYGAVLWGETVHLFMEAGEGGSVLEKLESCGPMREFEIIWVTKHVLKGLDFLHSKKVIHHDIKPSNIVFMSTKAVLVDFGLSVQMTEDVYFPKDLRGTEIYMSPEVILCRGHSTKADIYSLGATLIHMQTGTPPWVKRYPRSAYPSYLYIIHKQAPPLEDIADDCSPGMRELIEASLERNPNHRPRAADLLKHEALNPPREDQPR

SMILES	EC50 (TNFα; [1])	IC50 (Human Cot; IC50 HTRF)	EC50 (TNFα; [2])	IC50 (Human Cot; read-out: IC50 HTRF)
Cc1nc(F)ccc1[C@H](Nc1cc(C#N)c2ncc(C#N)c(NCC(C)(C)C)c2c1)c1nnn([C@@H](C)CF)c1F [Example 854, 6-(((S)-(5-fluoro-1-((S)-1-fluoropropan-2-yl)-1H-1,2,3-triazol-4-yl)(6-fluoro-2-methylpyridin-3-yl)methyl)amino)-4-(neopentylamino)quinoline-3,8-dicarbonitrile]	17 nM	4 nM		
Cc1nc(F)ccc1[C@H](Nc1cc(C#N)c2ncc(C#N)c(NCC(C)(C)C(F)(F)F)c2c1)c1nnn([C@@H](C)CF)c1F [Example 858, 6-(((S)-(5-fluoro-1-((S)-1-fluoropropan-2-yl)-1H-1,2,3-triazol-4-yl)(6-fluoro-2-methylpyridin-3-yl)methyl)amino)-4-((3,3,3-trifluoro-2,2-dimethylpropyl)amino)quinoline-3,8-dicarbonitrile]	44 nM	7 nM		
Cc1nc(F)ccc1[C@H](Nc1cc(C#N)c2ncc(C#N)c(NCC(C)(C)C(F)(F)F)c2c1)c1nnn(C23CC(C2)C3)c1F [Example 861, (S)-6-(((1-(bicyclo[1.1.1]pentan-1-yl)-5-fluoro-1H-1,2,3-triazol-4-yl)(6-fluoro-2-methylpyridin-3-yl)methyl)amino)-4-((3,3,3-trifluoro-2,2-dimethylpropyl)amino)quinoline-3,8-dicarbonitrile]	40 nM	7 nM		
Cc1nc(F)ccc1[C@H](Nc1cc(C#N)c2ncc(C#N)c(NCC(C)(C)C(F)(F)F)c2c1)c1nnn(C2(C)CC2)c1F [Example 863, (S)-6-(((5-fluoro-1-(1-methylcyclopropyl)-1H-1,2,3-triazol-4-yl)(6-fluoro-2-methylpyridin-3-yl)methyl)amino)-4-((3,3,3-trifluoro-2,2-dimethylpropyl)amino)-quinoline-3,8-dicarbonitrile]	35 nM	2 nM		
COc1c([C@@H](Nc2cc(C#N)c3ncc(C#N)c(NCC(C)(C)C)c3c2)c2ccc(F)nc2C)nnn1C12CC(C1)C2 [Example 868, (S)-6-(((1-(bicyclo[1.1,1]pentan-1-yl)-5-methoxy-1H-1,2,3-triazol-4-yl)(6-fluoro-2-methylpyridin-3-yl)methyl)amino)-4-(neopentylamino)quinoline-3,8-dicarbonitrile]	70 nM	2 nM		
CC(C)(C)CNc1c(C#N)cnc2c(C#N)cc(N[C@H](c3cn(C4(C(F)F)CC4)nn3)c3cccc4c(=O)n(CC(F)F)ccc34)cc12 [Example 870, (S)-6-(((2-(2,2-difluoroethyl)-1-oxo-1,2-dihydroisoquinolin-5-yl)(1-(1-(difluoromethyl)cyclopropyl)-1H-1,2,3-triazol-4-yl)methyl)amino)-4-(neopentylamino)quinoline-3,8-dicarbonitrile]	169 nM	2 nM		
CC(C)(C)CNc1c(C#N)cnc2c(C#N)cc(N[C@H](c3cn(C4(C(F)(F)F)CC4)nn3)c3cccc4c(=O)n(CC(F)F)ccc34)cc12 [Example 874, (S)-6-(((2-(2,2-difluoroethyl)-1-oxo-1,2-dihydroisoquinolin-5-yl)(1-(1-(trifluoromethyl)cyclopropyl)-1H-1,2,3-triazol-4-yl)methyl)amino)-4-(neopentylamino)quinoline-3,8-dicarbonitrile]	73 nM	3 nM		
CC(C)(C)CNc1c(C#N)cnc2c(C#N)cc(N[C@H](c3cn(C4(C(F)(F)F)CC4)nn3)c3cccc4c(=O)n(CC(F)(F)F)ccc34)cc12 [Example 875, (S)-4-(neopentylamino)-6-(((1-oxo-2-(2,2,2-trifluoroethyl)-1,2-dihydroisoquinolin-5-yl)(1-(1-(trifluoromethyl)cyclopropyl)-1H-1,2,3-triazol-4-yl)methyl)amino)quinoline-3,8-dicarbonitrile]	166 nM	2 nM		
C[C@@H](CF)n1cc([C@@H](Nc2cc(C#N)c3ncc(C#N)c(NCC(C)(C)C)c3c2)c2cccc3c(=O)n(C)ccc23)nn1 [Example 877, 6-(((S)-(1-((S)-1-fluoropropan-2-yl)-1H-1,2,3-triazol-4-yl)(2-methyl-1-oxo-1,2-dihydroisoquinolin-5-yl)methyl)amino)-4-(neopentylamino)quinoline-3,8-dicarbonitrile]	34 nM	2 nM		
Cn1ccc2c([C@H](Nc3cc(C#N)c4ncc(C#N)c(NCC(C)(C)C)c4c3)c3cn(C(CF)CF)nn3)cccc2c1=O [Example 880, (S)-6-(((1-(l,3-difluoropropan-2-yl)-1H-1,2,3-triazol-4-yl)(2-methyl-1-oxo-1,2-dihydroisoquinolin-5-yl)methyl)amino)-4-(neopentylamino)quinoline-3,8-dicarbonitrile]			80 nM	3 nM

The next lines start with the values.

EC50 (TNFα; [1])	IC50 (Human Cot; IC50 HTRF)	EC50 (TNFα; [2])	IC50 (Human Cot; read-out: IC50 HTRF)	SMILES
58 nM	2 nM			Cc1nc(F)ccc1[C@H](Nc1cc(C#N)c2ncc(C#N)c(NCC(C)(C)C)c2c1)c1cn(C2(C)COC2)nn1 [Example 852, (S)-6-(((6-fluoro-2-methylpyridin-3-yl)(1-(3-methyloxetan-3-yl)-1H-1,2,3-triazol-4-yl)methyl)amino)-4-(neopentylamino)quinoline-3,8-dicarbonitrile]
98 nM	1 nM			Cn1ccc2c([C@H](Nc3cc(C#N)c4ncc(C#N)c(NCC(C)(C)C)c4c3)c3cn(C4(C)COC4)nn3)cccc2c1=O [Example 853, (S)-6-(((2-methyl-1-oxo-1,2-dihydroisoquinolin-5-yl)(1-(3-methyloxetan-3-yl)-1H-1,2,3-triazol-4-yl)methyl)amino)-4-(neopentylamino)quinoline-3,8-dicarbonitrile]
29 nM	1 nM			CC(C)(C)CNc1c(C#N)cnc2c(C#N)cc(N[C@H](c3cn(C4CC4)nn3)c3csc4cnccc34)cc12 [Example 856, (S)-6-(((1-cyclopropyl-1H-1,2,3-triazol-4-yl)(thieno[2,3-c]pyridin-3-yl)methyl)amino)-4-(neopentylamino)quinoline-3,8-dicarbonitrile]
		180 nM	4 nM	Cc1nc(F)ccc1[C@H](Nc1cc(C#N)c2ncc(C#N)c(NCC(C)(C)C)c2c1)c1nnn(C2CC2)c1C1CC1 [Example 857, (S)-6-(((l,5-dicyclopropyl-1H-1,2,3-triazol-4-yl)(6-fluoro-2-methylpyridin-3-yl)methyl)amino)-4-(neopentylamino)quinoline-3,8-dicarbonitrile]
31 nM	3 nM			Cc1nc(F)ccc1[C@H](Nc1cc(C#N)c2ncc(C#N)c(NCC(C)(C)C)c2c1)c1cn(C2(C(C)(C)C)CC2)nn1 [Example 860, (S)-6-(((1-(1-(tert-butyl)cyclopropyl)-1H-1,2,3-triazol-4-yl)(6-fluoro-2-methylpyridin-3-yl)methyl)amino)-4-(neopentylamino)quinoline-3,8-dicarbonitrile]
18 nM	2 nM			Cc1nc(F)ccc1[C@H](Nc1cc(C#N)c2ncc(C#N)c(NCC(C)(C)C)c2c1)c1cn(CC2(C)CC2)nn1 [Example 866, (S)-6-(((6-fluoro-2-methylpyridin-3-yl)(1-((1-methylcyclopropyl)methyl)-1H-1,2,3-triazol-4-yl)methyl)amino)-4-(neopentylamino)quinoline-3,8-dicarbonitrile]
		27 nM	3 nM	Cc1nc(F)ccc1[C@H](Nc1cc(C#N)c2ncc(C#N)c(NCC(C)(C)C(F)(F)F)c2c1)c1cn(C2(C3CC3)CC2)nn1 [Example 867, (S)-6-(((4-(1-(1,1-bi(cyclopropan)]-1-yl)-1H-1,2,3-triazol-4-yl)(6-fluoro-2-methylpyridin-3-yl)methyl)amino)-4-((3,3,3-trifluoro-2,2-dimethylpropyl)amino)quinoline-3,8-dicarbonitrile]
		32 nM	1 nM	Cn1ccc2c([C@H](Nc3cc(C#N)c4ncc(C#N)c(NCC(C)(C)C)c4c3)c3cn(C4(C(F)F)CC4)nn3)cccc2c1=O [Example 871]
15 nM	1 nM			Cc1nc(F)ccc1[C@H](Nc1cc(C#N)c2ncc(C#N)c(NCC(C)(C)C)c2c1)c1cn(C2CC23CC3)nn1 (stereo partly drawn) [Example 872, 6-(((1S)-(6-fluoro-2-methylpyridin-3-yl)(1-(spiro[2.2]pentan-1-yl)-1H-1,2,3-triazol-4-yl)methyl)amino)-4-(neopentylamino)quinoline-3,8-dicarbonitrile]
385 nM	2 nM			CC(C)(C)CNc1c(C#N)cnc2c(C#N)cc(N[C@H](c3cn(C4(C(F)F)CC4)nn3)c3cccc4c(=O)[nH]ccc34)cc12 [Example 876, (S)-6-(((1-(1-(difluoromethyl)cyclopropyl)-1H-1,2,3-triazol-4-yl)(1-oxo-1,2-dihydroisoquinolin-5-yl)methyl)amino)-4-(neopentylamino)quinoline-3,8-dicarbonitrile]
31 nM	2 nM			Cn1ccc2c([C@H](Nc3cc(C#N)c4ncc(C#N)c(NCC(C)(C)C)c4c3)c3cn(C4(CF)CC4)nn3)cccc2c1=O [Example 878, (S)-6-(((1-(1-(fluoromethyl)cyclopropyl)-1H-1,2,3-triazol-4-yl)(2-methyl-1-oxo-1,2-dihydroisoquinolin-5-yl)methyl)amino)-4-(neopentylamino)quinoline-3,8-dicarbonitrile]
13 nM	1 nM			Cn1ccc2c([C@H](Nc3cc(C#N)c4ncc(C#N)c(NCC(C)(C)C)c4c3)c3cn(C4(C)CC4)nn3)cccc2c1=O [Example 879, (S)-6-(((2-methyl-1-oxo-1,2-dihydroisoquinolin-5-yl)(1-(1-methylcyclopropyl)-1H-1,2,3-triazol-4-yl)methyl)amino)-4-(neopentylamino)quinoline-3,8-dicarbonitrile]
